According to patent US10065941B2, “Aminotriazine derivative and pharmaceutical composition comprising the same” (Shionogi & Co., Ltd., priority 2013, dated 2018):

Biological target: human P2X3 receptor (Homo sapiens (Human), UniProt P56373)
Test: Evaluation of human P2X3 receptor inhibitory activity (Test Example 1)
Format: cell-based
Details: C6BU-1 cell transfected with human P2X3 receptor gene, FLIPR 384
Procedure: Stably expressing cell line (C6BU-1 cell transfected with human P2X3 receptor gene (GenBank accession number Y07683) was used. The cells were seeded in a 384-well PDL-coated microtiter plate at a concentration of 3000 cells/well and cultured in the medium (8.3% fetal bovine serum, 8.3% horse serum, and 1% antibiotic and antifungal in DMEM) for one day at 37° C. under 5% carbon dioxide atmosphere. The medium was replaced with 4 μM Fluo-3-AM solution (20 mM HEPES, 137 mM NaCl, 2.7 mM KCl, 0.9 mM MgCl2, 5.0 mM CaCl2, 5.6 mM D-glucose, 2.5 mM probenecid, 0.5% BSA, and 0.04% Pluronic F-127, pH 7.5) and incubated at 37° C. under 5% dioxide carbon atmosphere for one hour. The plate was washed with washing buffer (20 mM HEPES, 137 mM NaCl, 2.7 mM KCl, 0.9 mM MgCl2, 5.0 mM CaCl2, 5.6 mM D-glucose, 2.5 mM probenecid, pH7.5), and each well was added with 20 μL of the washing buffer. The plate was placed in High-Throughput Screening System FLIPR 384 (Molecular Device Co.). Measurement of fluorescence intensity by FLIPR 384 was started, and 20 μL of DMSO solutions containing different concentrations of the test compound as prepared by dilution with dilution buffer (20 mM HEPES, 137 mM NaCl, 2.7 mM KCl, 0.9 mM MgCl2, 5.0 mM CaCl2, 5.6 mM D-glucose, 2.5 mM probenecid, 0.1% Pluronic F-127, pH7.5) were dispensed to each well through the built-in automatic dispenser. Five minutes after, 150 nM ATP solution (25 μL) prepared by dilution with the dilution buffer was dispensed through the built-in automatic dispenser, and the measurement of fluorescence intensity was continued for 4 min. For each well, the specific maximum fluorescence intensity was calculated as the ratio of the maximum fluorescence intensity after addition of the ATP solution to the fluorescence intensity at the starting of the measurement. […] The specific maximum fluorescence intensity and IC50 were calculated using Spotfire (Science & Technology Systems, Inc.)

Sequence of human P2X3 receptor (P56373 whole entry): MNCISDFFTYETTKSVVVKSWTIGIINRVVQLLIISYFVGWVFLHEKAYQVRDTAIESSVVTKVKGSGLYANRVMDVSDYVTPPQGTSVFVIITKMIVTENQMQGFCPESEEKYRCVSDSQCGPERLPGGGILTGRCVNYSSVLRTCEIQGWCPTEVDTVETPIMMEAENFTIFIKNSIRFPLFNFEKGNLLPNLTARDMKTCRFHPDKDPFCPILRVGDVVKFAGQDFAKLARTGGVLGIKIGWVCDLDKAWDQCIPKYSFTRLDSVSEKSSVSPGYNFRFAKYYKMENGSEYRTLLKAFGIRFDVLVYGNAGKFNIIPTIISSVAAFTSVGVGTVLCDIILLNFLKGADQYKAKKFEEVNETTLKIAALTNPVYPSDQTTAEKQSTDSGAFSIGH

Structure (SMILES)	IC50 [nM]
Cn1c(=O)[nH]/c(=N\c2ccc(Oc3cccc(C(=O)Nc4ccc(C(=O)O)cc4)n3)cc2)n(C[C@H]2CC[C@H](C)CC2)c1=O [Compound R-006]	4
Cc1ccc(Cn2c(=O)n(CC(C)(C)C(=O)O)c(=O)[nH]/c2=N\c2ccc(Oc3ccc(Cl)cn3)cc2)cc1 [Compound I-101]	5
CCc1[nH]c2ccc(/N=c3\[nH]c(=O)n(CC(C)(C)C(=O)OC)c(=O)n3Cc3ccc(Cl)cc3)cc2c1C [Compound R-069]	51
COC(=O)[C@@H](C)Cn1c(=O)[nH]/c(=N\c2ccc(Oc3cnccn3)c(C)c2)n(Cc2ccc(Cl)cc2)c1=O [Compound R-111]	5
C[C@@H](Cn1c(=O)[nH]/c(=N\c2ccc(Oc3ccnc(Cl)c3)cc2)n(Cc2ccc(Cl)cc2)c1=O)C(=O)O [Compound R-088]	6
C[C@@H](Cn1c(=O)[nH]/c(=N\c2ccc(Oc3ccc(CO)nc3)cc2)n(Cc2ccc(Cl)cc2)c1=O)C(=O)O [Compound R-155]	10
CC(C)Oc1ccc(/N=c2\[nH]c(=O)n(C[C@@H](O)CC(=O)O)c(=O)n2Cc2ccc(Cl)cc2)cc1Cl [Compound R-179]	56
COC(=O)[C@@H](C)Cn1c(=O)[nH]/c(=N\c2ccc(Oc3cnc(Cl)cn3)cc2)n(Cc2ccc(Cl)cc2)c1=O [Compound R-013]	6
COC(=O)CCn1c(=O)[nH]/c(=N\c2ccc(Oc3ccccn3)c(C)c2)n(Cc2ccc(Cl)cc2)c1=O [Compound R-291]	6
COC(=O)C[C@@H](C)n1c(=O)[nH]/c(=N\c2ccc(Oc3ccc(F)cn3)cc2)n(Cc2ccc(Cl)cc2)c1=O [Compound I-160]	5
CNC(=O)CCn1c(=O)[nH]/c(=N\c2ccc(Oc3ccccn3)cc2)n(Cc2ccc(Cl)cc2)c1=O [Compound R-230]	5
COc1cccc(Oc2ccc(/N=c3\[nH]c(=O)n(C[C@H](C)C(=O)O)c(=O)n3Cc3ccc(C)cc3)cc2)n1 [Compound I-218]	10
COCc1cccc(Oc2ccc(/N=c3\[nH]c(=O)n(C[C@H](C)C(=O)O)c(=O)n3Cc3ccc(Cl)cc3)cc2)n1 [Compound I-255]	18
COC(=O)C(C)(C)Cn1c(=O)[nH]/c(=N\c2ccc(N3CCCCC3)c(C)c2)n(Cc2ccc(Cl)cc2)c1=O [Compound R-139]	119
COC(=O)[C@@H](C)Cn1c(=O)[nH]/c(=N\c2ccc(Oc3cncc(OC)c3)cc2)n(Cc2ccc(Cl)cc2)c1=O [Compound R-199]	7
C[C@@H](Cn1c(=O)[nH]/c(=N\c2ccc(OC3CCC3)c(F)c2)n(Cc2ccc(Cl)cc2)c1=O)C(=O)O [Compound R-076]	13
CCOC(=O)CCCn1c(=O)[nH]/c(=N\c2ccc(Oc3cccc(F)n3)cc2)n(Cc2ccc(C)cc2)c1=O [Compound R-296]	5
CCOC(=O)Cn1c(=O)[nH]/c(=N\c2ccc(Oc3ccc(C#N)cn3)cc2)n(Cc2ccc(Cl)cc2)c1=O [Compound R-313]	3
COC(=O)C(C)(C)Cn1c(=O)[nH]/c(=N\c2ccc(Oc3ccc(Cl)cn3)cc2)n(Cc2ccc(C)cc2)c1=O [Compound I-098]	7
COC(=O)CCn1c(=O)[nH]/c(=N\c2ccc(Oc3cccc(F)n3)cc2)n(Cc2ccc(CF)cc2)c1=O [Compound R-286]	6
CCc1oc2ccc(/N=c3\[nH]c(=O)[nH]c(=O)n3Cc3ccc(Cl)cc3)cc2c1C [Compound R-173]	376
C[C@@H](Cn1c(=O)[nH]/c(=N\c2ccc(N3CCCCC3)c(F)c2)n(Cc2ccc(Cl)cc2)c1=O)C(=O)O [Compound R-146]	33
CC(C)(Cn1c(=O)[nH]/c(=N\c2ccc(Oc3ncccc3F)cc2)n(Cc2ccc(Cl)cc2)c1=O)C(=O)O [Compound I-009]	7
COC(=O)c1cccc(-c2ccc(Oc3ccc(/N=c4\[nH]c(=O)[nH]c(=O)n4Cc4ccc(Cl)cc4)cc3)nc2)c1 [Compound R-002]	363
CC(C)(Cn1c(=O)[nH]/c(=N\c2ccc(Oc3cc(F)nc(F)c3)cc2)n(Cc2ccc(Cl)cc2)c1=O)C(=O)O [Compound R-070]	7
Cc1cnc(Oc2ccc(/N=c3\[nH]c(=O)n([C@@H](C)[C@@H](C)C(=O)O)c(=O)n3Cc3ccc(Cl)cc3)cc2)s1 [Compound R-183]	7
COC(=O)CCn1c(=O)[nH]/c(=N\c2ccc(Oc3ccccn3)c(F)c2)n(Cc2ccc(Cl)cc2)c1=O [Compound R-293]	4

Structure (SMILES)	IC50 [nM]
COC(=O)[C@H](C)Cn1c(=O)[nH]/c(=N\c2ccc(Oc3ccccn3)cc2)n(Cc2ccc(C)cc2)c1=O [Compound I-140]	3
C[C@@H](Cn1c(=O)[nH]/c(=N\c2ccc(Oc3ncns3)cc2)n(Cc2ccc(Cl)cc2)c1=O)C(=O)O [Compound R-195]	9
CCc1[nH]c2ccc(/N=c3\[nH]c(=O)n(CC(C)(C)C(=O)O)c(=O)n3Cc3ccc(Cl)cc3)cc2c1C [Compound R-075]	13
COC(=O)[C@@H](C)Cn1c(=O)[nH]/c(=N\c2ccc(Oc3ccc(CO)cn3)cc2)n(Cc2ccc(Cl)cc2)c1=O [Compound I-083]	6
COC(=O)[C@H](C)[C@H](C)n1c(=O)[nH]/c(=N\c2ccc(Oc3ccccn3)cc2)n(Cc2ccc(Cl)cc2)c1=O [Compound I-144]	9
C[C@@H](Cn1c(=O)[nH]/c(=N\c2ccc(Oc3nc4ccccc4o3)cc2)n(Cc2ccc(Cl)cc2)c1=O)C(=O)O [Compound R-144]	5
COC(=O)[C@@H](C)Cn1c(=O)[nH]/c(=N\c2ccc(Oc3ccccn3)c(C)c2)n(Cc2ccc(Cl)cc2)c1=O [Compound I-223]	11
O=C(O)Cn1c(=O)[nH]/c(=N\c2ccc(Oc3ccccn3)cc2)n(Cc2ccc(Cl)cc2)c1=O [Compound R-239, 1-(4-chlorobenzyl)-3-(hydroxylcarbonylmethyl)-6-[4-(2-pyridyloxy)phenylimino]-1,3,5-triazinane-2,4-dione]	399
COC(=O)[C@@H](C)Cn1c(=O)[nH]/c(=N\c2ccc(Oc3cnc(C(F)(F)F)cn3)cc2)n(Cc2ccc(Cl)cc2)c1=O [Compound R-035]	8
Cc1ccc(Cn2c(=O)n(CCCC(=O)O)c(=O)[nH]/c2=N\c2ccc(Oc3ccc(F)cn3)cc2)cc1 [Compound R-278]	15
C[C@@H](C(=O)O)[C@H](C)n1c(=O)[nH]/c(=N\c2ccc(Oc3cnccn3)cc2)n(Cc2ccc(Cl)cc2)c1=O [Compound R-168]	17
CC(C)(Cn1c(=O)[nH]/c(=N\c2ccc(Oc3cnc(Cl)cn3)cc2)n(Cc2ccc(Cl)cc2)c1=O)C(=O)O [Compound R-027]	6
C[C@@H](Cn1c(=O)[nH]/c(=N\c2ccc(Oc3ccc(OC(F)F)cn3)cc2)n(Cc2ccc(Cl)cc2)c1=O)C(=O)O [Compound I-022]	4
C[C@H](CC(=O)O)n1c(=O)[nH]/c(=N\c2ccc(Oc3cccc(F)n3)cc2)n(Cc2ccc(Cl)cc2)c1=O [Compound I-163]	8
COC(=O)CCn1c(=O)[nH]/c(=N\c2ccc(Oc3ccccn3)c(F)c2)n(Cc2ccc(C)cc2)c1=O [Compound R-292]	4
COC(=O)[C@@H](C)Cn1c(=O)[nH]/c(=N\c2ccc(Oc3cc(F)nc(F)c3)cc2)n(Cc2ccc(Cl)cc2)c1=O [Compound R-040]	7
CCOC(=O)C[C@H](O)Cn1c(=O)[nH]/c(=N\c2ccc3oc(CC)c(C)c3c2)n(Cc2ccc(Cl)cc2)c1=O [Compound R-172]	33
COC(=O)[C@@H](C)Cn1c(=O)[nH]/c(=N\c2ccc(O[C@H](C)C(F)(F)F)c(F)c2)n(Cc2ccc(Cl)cc2)c1=O [Compound R-090]	70
Cc1nccnc1Oc1ccc(/N=c2\[nH]c(=O)n(C[C@H](C)C(=O)O)c(=O)n2Cc2ccc(Cl)cc2)cc1 [Compound R-237]	9
CC(C)(C)n1c(=O)[nH]/c(=N\c2ccc(Oc3cccc(C(N)=O)n3)cc2)n(Cc2ccc(Cl)cc2)c1=O [Compound R-233]	318
Cc1ccc(Cn2c(=O)n([C@H](C)CC(=O)O)c(=O)[nH]/c2=N\c2ccc(Oc3ccc(F)cn3)cc2)cc1 [Compound I-191]	11
CCn1c(=O)[nH]/c(=N\c2ccc(Oc3ccc(C(=O)OC)c(Cl)n3)cc2)n(Cc2ccc(Cl)cc2)c1=O [Compound R-064]	12
COC(=O)[C@@H](C)Cn1c(=O)[nH]/c(=N\c2ccc(Oc3ccc(OC(F)F)cn3)cc2)n(Cc2ccc(C)cc2)c1=O [Compound I-132]	8
O=C(O)CCn1c(=O)[nH]/c(=N\c2ccc(Oc3ccc(Cl)cn3)cc2)n(Cc2ccc(Cl)cc2)c1=O [Compound R-284]	5
CO[C@H](Cn1c(=O)[nH]/c(=N\c2ccc(Oc3ccccn3)cc2)n(Cc2ccc(Cl)cc2)c1=O)C(=O)O [Compound I-200]	42
Cc1ccc(Cn2c(=O)n(C[C@H](C)C(=O)O)c(=O)[nH]/c2=N\c2ccc(Oc3ccc(Cl)cn3)cc2)cc1 [Compound I-100]	4
